Experimental data as given in US12692254B2, “Benzimidazole inhibitors of PAD enzymes” (BRISTOL-MYERS SQUIBB COMPANY, priority 2018, dated 2026).

These compounds were tested against human PAD4 (hPAD4) (Homo sapiens, UniProt Q9UM07) (assay: RFMS human PAD4 functional assay (rapid-fire mass spectrum)). Settings: 5 nM hPAD4 enzyme, 250 μM BAEE, 50 μM Calcium; 30 min preincubation, 90 min reaction at 37° C.
Type: biochemical
Summary of the method: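 PAD4 (10 nM) preincubated 30 min with compound (top final 50 μM), then BAEE substrate added in pH 7.5 HEPES buffer with DTT, 50 μM calcium, TPEN; 90 min at 37° C. After TCA quench, citrulline derivatized with phenyl glyoxal (4 mM final, 30 min, 37° C) and quantified by RapidFire MS against internal standard.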

Sequence of human PAD4 (hPAD4) (Q9UM07 whole entry): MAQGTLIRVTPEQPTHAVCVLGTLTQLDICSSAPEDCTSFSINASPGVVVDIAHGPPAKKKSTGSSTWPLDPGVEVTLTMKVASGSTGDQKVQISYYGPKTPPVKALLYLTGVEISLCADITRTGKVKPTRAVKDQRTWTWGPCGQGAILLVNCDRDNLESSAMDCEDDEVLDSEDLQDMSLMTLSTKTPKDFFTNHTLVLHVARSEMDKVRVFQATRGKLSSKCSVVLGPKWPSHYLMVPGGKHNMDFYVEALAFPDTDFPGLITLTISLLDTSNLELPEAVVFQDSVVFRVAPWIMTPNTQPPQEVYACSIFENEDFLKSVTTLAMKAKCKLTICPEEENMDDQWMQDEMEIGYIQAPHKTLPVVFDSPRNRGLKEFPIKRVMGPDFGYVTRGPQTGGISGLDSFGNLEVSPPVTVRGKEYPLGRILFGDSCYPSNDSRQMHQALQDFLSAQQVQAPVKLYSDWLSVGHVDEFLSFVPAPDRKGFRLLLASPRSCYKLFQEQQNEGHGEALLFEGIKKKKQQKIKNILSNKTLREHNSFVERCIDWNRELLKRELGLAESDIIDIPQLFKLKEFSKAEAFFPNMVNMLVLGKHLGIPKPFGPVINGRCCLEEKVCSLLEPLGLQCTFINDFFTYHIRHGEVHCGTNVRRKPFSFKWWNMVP

Compound	IC50 [nM]
COc1cc(C(=O)N2C[C@H]3CC[C@@H]2[C@@H]3N)cc2nc(-c3cc4cccnc4n3CC3CC3)n(C3CN(c4ncccn4)C3)c12 [Example 80, (1R,4R,7R)-2-{2-[1-(cyclopropylmethyl)-1H-pyrrolo[2,3-b]pyridin-2-yl]-7-methoxy-1-[1-(pyrimidin-2-yl)azetidin-3-yl]-1H-1,3-benzodiazole-5-carbonyl}-2-azabicyclo[2.2.1]heptan-7-amine]	403
COc1cc(C(=O)N2C[C@H]3CC[C@@H]2[C@@H]3N)cc2nc(-c3cc4cccnc4n3CC3CC3)n(C3CN(c4ccccc4)C3)c12 [Example 81, (1R,4R,7R)-2-{2-[1-(cyclopropylmethyl)-1H-pyrrolo[2,3-b]pyridin-2-yl]-7-methoxy-1-(1-phenylazetidin-3-yl)-1H-1,3-benzodiazole-5-carbonyl}-2-azabicyclo[2.2.1]heptan-7-amine]	403
COc1cc(C(=O)N2C[C@H]3CC[C@@H]2[C@@H]3N)cc2nc(-c3cc4cccnc4n3CC3CC3)n(C3CN(c4cnc(C#N)nc4)C3)c12 [Example 82, 5-(3-{5-[(1R,4R,7R)-7-amino-2-azabicyclo[2.2.1]heptane-2-carbonyl]-2-[1-(cyclopropylmethyl)-1H-pyrrolo[2,3-b]pyridin-2-yl]-7-methoxy-1H-1,3-benzodiazol-1-yl}azetidin-1-yl)pyrimidine-2-carbonitrile]	424
COc1cc(C(=O)N2C[C@H]3CC[C@@H]2[C@@H]3N)cc2nc(-c3cc4cccnc4n3C)n(CC3CN(c4ncccn4)C3)c12 [Example 83, (1R,4R,7R)-2-(7-methoxy-2-{1-methyl-1H-pyrrolo[2,3-b]pyridin-2-yl}-1-{[1-(pyrimidin-2-yl)azetidin-3-yl]methyl}-1H-1,3-benzodiazole-5-carbonyl)-2-azabicyclo[2.2.1]heptan-7-amine]	440
COc1cc(C(=O)N2C[C@H]3CC[C@@H]2[C@@H]3N)cc2nc(-c3cc4cccnc4n3CC3CC3)n(CC3CN(c4cncs4)C3)c12 [Example 84, (1R,4R,7R)-2-{2-[1-(cyclopropylmethyl)-1H-pyrrolo[2,3-b]pyridin-2-yl]-7-methoxy-1-{[1-(1,3-thiazol-5-yl)azetidin-3-yl]methyl}-1H-1,3-benzodiazole-5-carbonyl}-2-azabicyclo[2.2.1]heptan-7-amine]	511
COc1cc(C(=O)N2C[C@H]3CC[C@@H]2[C@@H]3N)cc2nc(-c3cc4cccnc4n3CC3CC3)n(CC3CN(c4ccccc4C(C)=O)C3)c12 [Example 85, 1-{2-[3-({5-[(1R,4R,7R)-7-amino-2-azabicyclo[2.2.1]heptane-2-carbonyl]-2-[1-(cyclopropylmethyl)-1H-pyrrolo[2,3-b]pyridin-2-yl]-7-methoxy-1H-1,3-benzodiazol-1-yl}methyl)azetidin-1-yl]phenyl}ethan-1-one]	638
COc1cc(C(=O)N2C[C@H]3CC[C@@H]2[C@@H]3N)cc2nc(-c3cc4cccnc4n3CC3CC3)n(C3CN(c4ccncn4)C3)c12 [Example 86, (1R,4R,7R)-2-{2-[1-(cyclopropylmethyl)-1H-pyrrolo[2,3-b]pyridin-2-yl]-7-methoxy-1-[1-(pyrimidin-4-yl)azetidin-3-yl]-1H-1,3-benzodiazole-5-carbonyl}-2-azabicyclo[2.2.1]heptan-7-amine]	1680
COc1cc(C(=O)N2C[C@H]3CC[C@@H]2[C@@H]3N)cc2nc(-c3cc4ccc(Cl)cc4n3CC3CC3)n(CC3CN(c4cncc(C#N)c4)C3)c12 [Example 87, 5-[3-({5-[(1R,4R,7R)-7-amino-2-azabicyclo[2.2.1]heptane-2-carbonyl]-2-[6-chloro-1-(cyclopropylmethyl)-1H-indol-2-yl]-7-methoxy-1H-1,3-benzodiazol-1-yl}methyl)azetidin-1-yl]pyridine-3-carbonitrile]	2280
